Measurements: ChEMBL document CHEMBL3813609, “Efficient protein knockdown of HaloTag-fused proteins using hybrid molecules consisting of IAP antagonist and HaloTag ligand” (Bioorg Med Chem, 2016)
Activity calls are given as the source filed them. The rule behind the calls is not given here. Where a SMILES comes first, the peptide text is derived from it. [ ]: non-standard residue; d: D form. The star is where a group is joined. Dip = N[C@H](C(=O)O)C(c1ccccc1)c1ccccc1; X2 = ClCCCCCCOCCOCCOCCOCCOCCN*; Chg = N[C@H](C(=O)O)C1CCCCC1; NMeA = CN[C@@H](C)C(=O)O; X1 = ClCCCCCCOCCOCCOCCN*

Experiments:
Format in all cases: cell-based
[1] = biological target: Cyclic AMP-responsive element-binding protein 1 (Homo sapiens) (UniProt P16220); assay: Induction of degradation of halo-tagged CREB1 (unknown origin) expressed in HEK293 cells at 10 uM by Western blot analysis
[2] = biological target: Transcription factor Jun (Homo sapiens) (UniProt P05412); assay: Induction of degradation of halo-tagged c-jun (unknown origin) expressed in HEK293 cells assessed as time required to reduce level of halo-tagged c-jun at 10 uM by Western blot analysis
[3] = biological target: Tumor necrosis factor (Homo sapiens) (UniProt P01375); assay: Induction of degradation of halo-tagged human TNFalpha expressed in HEK293 cells at 30 uM after 6 hrs by Western blot analysis
[4] = biological target: Tumor necrosis factor (Homo sapiens) (UniProt P01375); assay: Induction of degradation of halo-tagged TNFalpha (unknown origin) expressed in HEK293 cells at 10 uM after 24 hrs by Western blot analysis
[5] = biological target: Tumor necrosis factor (Homo sapiens) (UniProt P01375); assay: Induction of degradation of halo-tagged human TNFalpha expressed in HEK293 cells at 1 uM after 6 hrs by Western blot analysis
HEK293 [6] = assay: Increase in level of bacterial haloalkane dehalogenase expressed in HEK293 cells at 0.1 to 0.3 uM after 6 hrs by Western blot analysis; conditions: Bacteria
[7] = biological target: Tumor necrosis factor (Homo sapiens) (UniProt P01375); assay: Induction of degradation of halo-tagged human TNFalpha expressed in HEK293 cells after 6 hrs by Western blot analysis
[8] = biological target: Tumor necrosis factor (Homo sapiens) (UniProt P01375); assay: Induction of degradation of halo-tagged human TNFalpha expressed in HEK293 cells at 1 uM after 6 hrs by Western blot analysis in presence of proteasome inhibitor MG132
[9] = biological target: Cell division control protein 42 homolog (Homo sapiens) (UniProt P60953); assay: Induction of degradation of halo-tagged human Cdc42 expressed in HEK293 cells at 1 uM after 6 hrs by Western blot analysis
HEK293 [10] = assay: Induction of degradation of bacterial haloalkane dehalogenase expressed in HEK293 cells at 1 uM after 6 hrs by Western blot analysis; conditions: Bacteria
[11] = biological target: Tumor necrosis factor (Homo sapiens) (UniProt P01375); assay: Increase in level of halo-tagged human TNFalpha expressed in HEK293 cells at 0.1 to 0.3 uM after 6 hrs by Western blot analysis

Sequence of Cyclic AMP-responsive element-binding protein 1 (Homo sapiens) (P16220 whole entry): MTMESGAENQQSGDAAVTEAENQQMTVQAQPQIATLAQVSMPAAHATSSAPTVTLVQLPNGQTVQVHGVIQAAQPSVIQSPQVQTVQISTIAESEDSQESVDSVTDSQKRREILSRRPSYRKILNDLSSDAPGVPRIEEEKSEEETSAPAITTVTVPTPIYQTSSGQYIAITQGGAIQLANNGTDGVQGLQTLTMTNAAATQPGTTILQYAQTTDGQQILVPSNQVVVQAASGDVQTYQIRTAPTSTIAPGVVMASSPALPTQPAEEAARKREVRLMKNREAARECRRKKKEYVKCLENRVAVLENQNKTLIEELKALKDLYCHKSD
Sequence of Transcription factor Jun (Homo sapiens) (P05412 whole entry): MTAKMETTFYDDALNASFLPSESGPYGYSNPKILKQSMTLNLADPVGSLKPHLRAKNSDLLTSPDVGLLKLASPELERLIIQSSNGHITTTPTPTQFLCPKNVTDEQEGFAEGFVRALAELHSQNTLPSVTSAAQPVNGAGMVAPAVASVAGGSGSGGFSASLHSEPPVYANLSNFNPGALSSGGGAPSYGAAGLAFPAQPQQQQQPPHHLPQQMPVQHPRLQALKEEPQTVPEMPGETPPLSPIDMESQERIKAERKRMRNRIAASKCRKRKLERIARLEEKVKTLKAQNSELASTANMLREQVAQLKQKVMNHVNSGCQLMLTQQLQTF
Sequence of Tumor necrosis factor (Homo sapiens) (P01375 whole entry): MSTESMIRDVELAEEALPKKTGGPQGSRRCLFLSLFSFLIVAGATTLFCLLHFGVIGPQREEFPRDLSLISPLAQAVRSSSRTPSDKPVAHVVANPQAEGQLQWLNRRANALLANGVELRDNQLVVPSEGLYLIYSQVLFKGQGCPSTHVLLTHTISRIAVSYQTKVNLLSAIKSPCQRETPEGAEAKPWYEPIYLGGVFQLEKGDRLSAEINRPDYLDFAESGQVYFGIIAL
Sequence of Cell division control protein 42 homolog (Homo sapiens) (P60953 whole entry, looked up): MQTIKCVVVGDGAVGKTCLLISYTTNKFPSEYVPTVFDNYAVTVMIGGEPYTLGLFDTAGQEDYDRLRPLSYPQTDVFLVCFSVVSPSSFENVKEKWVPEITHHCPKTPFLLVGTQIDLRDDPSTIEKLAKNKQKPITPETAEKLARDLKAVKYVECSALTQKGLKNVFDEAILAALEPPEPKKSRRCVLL

In the case of `CC(C)C[C@H](NC(=O)[C@@H](O)[C@H](N)Cc1ccccc1)C(=O)NCCOCCOCCOCCCCCCCl`, the Activity [1] is reported as “Active” and the TIME [2] is reported as 21 h.

For `CC(C)C[C@H](NC(=O)[C@@H](O)[C@H](N)Cc1ccccc1)C(=O)NCCOCCOCCOCCOCCCCCCCl`, the Activity [3] was “inactive”, the Activity [1] was “Active” and the Activity [4] was “Active”. It also gave a TIME [2] of 21 h.

In the case of `CC(C)C[C@H](NC(=O)[C@@H](O)[C@H](N)Cc1ccccc1)C(=O)NCCOCCOCCOCCOCCOCCCCCCCl`, the Activity [1] is reported as “Active” and the TIME [2] is reported as 21 h.

With `CC(C)C[C@H](NC(=O)[C@@H](O)[C@H](N)Cc1ccccc1)C(=O)NCCOCCOCCOCCOCCOCCOCCCCCCCl` the Activity [1] was “Active” and the TIME [2] was 21 h.

With `NCCOCCOCCOCCCCCCCl` the Activity [5] was “inactive”.

In the case of `CN[C@@H](C)C(=O)N[C@H](C(=O)N1CCC[C@H]1C(=O)N[C@H](C(=O)NCCOCCOCCOCCCCCCCl)C(c1ccccc1)c1ccccc1)C1CCCCC1` (H-[NMeA][Chg]P[Dip]-X1), the Activity (HEK293 [6]) is reported as “Active”, the Activity [7] is reported as “Dose-dependent effect” and the Activity [8] is reported as “inactive”. For the same molecule, the Activity [9] was “inactive”, the Activity (HEK293 [10]) was “Active” and the Activity [11] was “Active”.

In the case of `CN[C@@H](C)C(=O)N[C@H](C(=O)N1CCC[C@H]1C(=O)N[C@H](C(=O)NCCOCCOCCOCCOCCOCCCCCCCl)C(c1ccccc1)c1ccccc1)C1CCCCC1` (H-[NMeA][Chg]P[Dip]-X2), the Activity (HEK293 [6]) is reported as “Active”, the Activity [5] is reported as “inactive” and the Activity [9] is reported as “Active”. The Activity (HEK293 [10]) was “Active” and the Activity [11] was “Active”.

In the case of `CN[C@@H](C)C(=O)NC(C(=O)N1CCC[C@H]1C(=O)N[C@H](C(=O)OC)C(c1ccccc1)c1ccccc1)C1CCCCC1` (single isomer, unassigned), the Activity [5] is reported as “inactive”.
